Measurements reported in patent US20250179061A1 (SIRONAX LTD., priority 2022, published 2025).
Read-outs that look alike come from different tables or passages of the source.

Test system: HT-29 cells
Assay: HT-29 necroptosis cell viability assay (TNF-α/SMAC mimetic/zVAD-FMK, CellTiter-Glo)
Type: cell-based
Conditions: Homo sapiens, read-out: Activity
Summary of the method: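 Necroptosis was triggered by TNF-α (10 ng/ml), SMAC mimetic (6 μM) and zVAD-FMK (10 μM) in serum-free medium during 20 h compound exposure (10 concentrations, threefold steps) of HT-29 cells. IC50 from duplicate dose-responses uses CellTiter-Glo ATP luminescence as viability read-out.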

[1] = HT-29 cells stimulated with TNF-α (10 ng/ml), SMAC mimetic (6 μM) and zVAD-FMK (10 μM), 20 hours, CellTiter-Glo ATP luminescence, geometric mean IC50 from 10 points
[2] = HT-29, HT-29 necroptosis cell viability assay, class symbols for IC50
[3] = HT-29, HT-29 necroptosis cell viability, IC50 class symbols

Row | Structure (SMILES) | IC50 [2] | IC50 [3] | further results
1 | Cc1nc(C(=O)NCCN2CCOCC2)sc1Oc1ccc(-n2ncn(Cc3ccccc3F)c2=O)cc1F [Example 25, 5-(2-fluoro-4-(4-(2-fluorobenzyl)-5-oxo-4,5-dihydro-1H-1,2,4-triazol-1-yl)phenoxy)-4-methyl-N-(2-morpholinoethyl)thiazole-2-carboxamide] | – | – | IC50 [1]: < 100 nM
2 | Cc1nc(C2CCOCC2)sc1Oc1ccc(-n2ncn(Cc3c(F)cccc3F)c2=O)cc1 [Example 551, 4-(2,6-difluorobenzyl)-2-(4-((4-methyl-2-(tetrahydro-2H-pyran-4-yl)thiazol-5-yl)oxy)phenyl)-2,4-dihydro-3H-1,2,4-triazol-3-one] | < 100 nM | – | –
3 | Cc1nc(CC#N)sc1Oc1ccc(-n2ncn(Cc3c(F)cccc3F)c2=O)cc1Cl [Example 139, 2-(5-(2-chloro-4-(4-(2,6-difluorobenzyl)-5-oxo-4,5-dihydro-1H-1,2,4-triazol-1-yl)phenoxy)-4-methylthiazol-2-yl)acetonitrile] | < 100 nM | – | –
4 | O=c1n(Cc2c(F)cccc2F)cnn1-c1ccc(Oc2ccnc(NC3CC4(COC4)C3)c2)cc1 [Example 530, 2-(4-((2-((2-oxaspiro[3.3]heptan-6-yl)amino)pyridin-4-yl)oxy)phenyl)-4-(2,6-difluorobenzyl)-2,4-dihydro-3H-1,2,4-triazol-3-one] | 100 to 1000 nM | – | –
5 | N#CC1CCCN(c2cc(Oc3ccc(-n4ncn(Cc5c(F)cccc5F)c4=O)cc3)ccn2)C1 (stereo not drawn) [Example 277, 1-(4-(4-(4-(2,6-difluorobenzyl)-5-oxo-4,5-dihydro-1H-1,2,4-triazol-1-yl)phenoxy)pyridin-2-yl)piperidine-3-carbonitrile] | – | 100 to 1000 nM | –
6 | Cc1ncsc1Oc1ccc(-n2nc3n(c2=O)[C@H](c2ccccc2)CC3)cc1F (single isomer, unassigned) [Example 3] | – | – | IC50 [1]: < 100 nM
7 | Cc1nc(N2CC(C)(N)C2)sc1Oc1ccc(-n2ncn(Cc3c(F)cccc3F)c2=O)cc1 [Example 390, 2-(4-((2-(3-amino-3-methylazetidin-1-yl)-4-methylthiazol-5-yl)oxy)phenyl)-4-(2,6-difluorobenzyl)-2,4-dihydro-3H-1,2,4-triazol-3-one] | – | < 100 nM | –
8 | CCNC1(C)CN(c2cc(Oc3ccc(-n4ncn(Cc5c(F)cccc5F)c4=O)cc3F)c(F)cn2)C1 [Example 419, 4-(2,6-difluorobenzyl)-2-(4-((2-(3-(ethylamino)-3-methylazetidin-1-yl)-5-fluoropyridin-4-yl)oxy)-3-fluorophenyl)-2,4-dihydro-3H-1,2,4-triazol-3-one] | – | 100 to 1000 nM | –
9 | Cn1ncn(Cc2ccc(-n3ncn(Cc4c(F)cccc4F)c3=O)cc2)c1=O [Example 479, 4-(2,6-difluorobenzyl)-2-(4-((1-methyl-5-oxo-1,5-dihydro-4H-1,2,4-triazol-4-yl)methyl)phenyl)-2,4-dihydro-3H-1,2,4-triazol-3-one] | – | 1000 to 10000 nM | –
10 | CC(C)(C)OC(=O)Nc1cc(Oc2ccc(-n3ncn(Cc4c(F)cccc4F)c3=O)cc2)ccn1 [Example 309, tert-butyl (4-(4-(4-(2,6-difluorobenzyl)-5-oxo-4,5-dihydro-1H-1,2,4-triazol-1-yl)phenoxy)pyridin-2-yl)carbamate] | – | < 100 nM | –
11 | N#CC12CC(Nc3nccc(Oc4ccc(-n5ncn(Cc6c(F)cccc6F)c5=O)cc4Cl)c3Cl)(C1)C2 [Example 313, 3-((3-chloro-4-(2-chloro-4-(4-(2,6-difluorobenzyl)-5-oxo-4,5-dihydro-1H-1,2,4-triazol-1-yl)phenoxy)pyridin-2-yl)amino)bicyclo[1.1.1]pentane-1-carbonitrile] | – | 100 to 1000 nM | –
12 | CC(=O)Nc1cc(Oc2ccc(-n3ncn(Cc4c(F)cccc4F)c3=O)cc2)ccn1 [Example 521, N-[4-[4-[4-[(2,6-difluorophenyl)methyl]-5-oxo-1,2,4-triazol-1-yl]phenoxy]-2-pyridyl]acetamide] | 100 to 1000 nM | – | –
13 | CCOC1CN(c2ncc(Oc3ccc(-n4ncn(Cc5c(F)cccc5F)c4=O)cc3)s2)C1 [Example 84, 4-(2,6-difluorobenzyl)-2-(4-((2-(3-ethoxyazetidin-1-yl)thiazol-5-yl)oxy)phenyl)-2,4-dihydro-3H-1,2,4-triazol-3-one] | – | – | IC50 [1]: < 100 nM
14 | CC1(C#N)CN(c2cc(Oc3ccc(-n4ncn(Cc5c(F)cccc5F)c4=O)cc3F)c(F)cn2)C1 [Example 262, 1-(4-(4-(4-(2,6-difluorobenzyl)-5-oxo-4,5-dihydro-1H-1,2,4-triazol-1-yl)-2-fluorophenoxy)-5-fluoropyridin-2-yl)-3-methylazetidine-3-carbonitrile] | – | < 100 nM | –
15 | COc1cc(S(=O)(=O)c2ccc(-n3ncn(Cc4ccccc4)c3=O)cc2)ccn1 [Example 616, 4-benzyl-2-(4-((2-methoxypyridin-4-yl)sulfonyl)phenyl)-2,4-dihydro-3H-1,2,4-triazol-3-one] | < 100 nM | – | –
16 | Cc1nc(NC23CC(C#N)(C2)C3)sc1Oc1ccc(-n2ncn(Cc3c(F)cccc3F)c2=O)cc1 [Example 45, 3-((5-(4-(4-(2,6-difluorobenzyl)-5-oxo-4,5-dihydro-1H-1,2,4-triazol-1-yl)phenoxy)-4-methylthiazol-2-yl)amino)bicyclo[1.1.1]pentane-1-carbonitrile] | – | – | IC50 [1]: < 100 nM
17 | O=c1n(Cc2c(F)cccc2F)cnn1-c1ccc(Oc2ccnc(NCC3CCOC3)c2)cc1 (stereo not drawn) [Example 259, 4-(2,6-difluorobenzyl)-2-(4-((2-(((tetrahydrofuran-3-yl)methyl)amino)pyridin-4-yl)oxy)phenyl)-2,4-dihydro-3H-1,2,4-triazol-3-one] | – | 100 to 1000 nM | –
18 | N#Cc1cc(S(=O)(=O)c2ccc(-n3ncn(Cc4ccccc4)c3=O)cc2)ccn1 [Example 615, 4-((4-(4-benzyl-5-oxo-4,5-dihydro-1H-1,2,4-triazol-1-yl)phenyl)sulfonyl)picolinonitrile] | < 100 nM | – | –
19 | CCOC1CN(c2nccc(Oc3ccc(-n4ncn(Cc5c(F)cccc5F)c4=O)cc3)c2N)C1 [Example 409, 2-(4-((3-amino-2-(3-ethoxyazetidin-1-yl)pyridin-4-yl)oxy)phenyl)-4-(2,6-difluorobenzyl)-2,4-dihydro-3H-1,2,4-triazol-3-one] | – | 100 to 1000 nM | –
20 | CCOC(=O)c1ncn(Cc2ccc(-n3ncn(Cc4c(F)cccc4F)c3=O)cc2F)c1C [Example 196, ethyl 1-(4-(4-(2,6-difluorobenzyl)-5-oxo-4,5-dihydro-1H-1,2,4-triazol-1-yl)-2-fluorobenzyl)-5-methyl-1H-imidazole-4-carboxylate] | < 100 nM | – | –
21 | Cc1nc(N2CCN(C)CC2)sc1Oc1ccc(-n2ncn(Cc3c(F)cccc3F)c2=O)cc1F [Example 296, 4-(2,6-difluorobenzyl)-2-(3-fluoro-4-((4-methyl-2-(4-methylpiperazin-1-yl)thiazol-5-yl)oxy)phenyl)-2,4-dihydro-3H-1,2,4-triazol-3-one] | – | < 100 nM | –
22 | O=c1n(Cc2c(F)cccc2F)cnn1-c1ccc(Oc2ccnc(N3C[C@H]4COC[C@H]4C3)c2)cc1 [Example 481, 4-(2,6-difluorobenzyl)-2-(4-((2-((3aR,6aS)-tetrahydro-1H-furo[3,4-c]pyrrol-5(3H)-yl)pyridin-4-yl)oxy)phenyl)-2,4-dihydro-3H-1,2,4-triazol-3-one] | 100 to 1000 nM | – | –
23 | O=c1n(Cc2c(F)cccc2F)cnn1-c1ccc(Oc2scnc2CO)c(F)c1 [Example 145, 4-(2,6-difluorobenzyl)-2-(3-fluoro-4-((4-(hydroxymethyl)thiazol-5-yl)oxy)phenyl)-2,4-dihydro-3H-1,2,4-triazol-3-one] | < 100 nM | – | –
24 | O=c1n(Cc2c(F)cccc2F)cnn1-c1ccc(Oc2ccnc(N3CCCC3)c2)cc1 [Example 525, 4-(2,6-difluorobenzyl)-2-(4-((2-(pyrrolidin-1-yl)pyridin-4-yl)oxy)phenyl)-2,4-dihydro-3H-1,2,4-triazol-3-one] | 100 to 1000 nM | – | –
25 | C[C@H]1C[C@@H](N)CN1c1cc(Oc2ccc(-n3ncn(Cc4c(F)cccc4F)c3=O)cc2F)ccn1 [Example 369, 2-(4-((2-((2S,4R)-4-amino-2-methylpyrrolidin-1-yl)pyridin-4-yl)oxy)-3-fluorophenyl)-4-(2,6-difluorobenzyl)-2,4-dihydro-3H-1,2,4-triazol-3-one] | – | < 100 nM | –
26 | C[C@H]1[C@@H](N)CN1c1cc(Oc2ccc(-n3ncn(Cc4c(F)cccc4F)c3=O)cc2F)c(F)cn1 [Example 415, 2-(4-((2-((2S,3S)-3-amino-2-methylazetidin-1-yl)-5-fluoropyridin-4-yl)oxy)-3-fluorophenyl)-4-(2,6-difluorobenzyl)-2,4-dihydro-3H-1,2,4-triazol-3-one] | – | < 100 nM | –
27 | COC(=O)c1nc(C)c(Oc2ccc(-n3ncn(Cc4cc(F)ccc4F)c3=O)cc2F)s1 [Example 108, methyl 5-(4-(4-(2,5-difluorobenzyl)-5-oxo-4,5-dihydro-1H-1,2,4-triazol-1-yl)-2-fluorophenoxy)-4-methylthiazole-2-carboxylate] | – | – | IC50 [1]: < 100 nM
28 | O=c1n(Cc2c(F)cccc2F)cnn1-c1ccc(Oc2ccccc2[N+](=O)[O-])cc1 [Example 433, 4-(2,6-difluorobenzyl)-2-(4-(2-nitrophenoxy)phenyl)-2,4-dihydro-3H-1,2,4-triazol-3-one] | – | 100 to 1000 nM | –
29 | CC1(OC(F)(F)F)CN(c2cc(Oc3ccc(-n4ncn(Cc5c(F)cccc5F)c4=O)cc3F)c(Cl)cn2)C1 [Example 506, 2-(4-((5-chloro-2-(3-methyl-3-(trifluoromethoxy)azetidin-1-yl)pyridin-4-yl)oxy)-3-fluorophenyl)-4-(2,6-difluorobenzyl)-2,4-dihydro-3H-1,2,4-triazol-3-one] | < 100 nM | – | –
30 | N#C[C@H]1CCN(c2cc(Oc3ccc(-n4ncn(Cc5c(F)cccc5F)c4=O)cc3)ccn2)C1 [Example 401, (S)-1-(4-(4-(4-(2,6-difluorobenzyl)-5-oxo-4,5-dihydro-1H-1,2,4-triazol-1-yl)phenoxy)pyridin-2-yl)pyrrolidine-3-carbonitrile] | – | < 100 nM | –
